Source: patent US11001615B2, “Mutated tau protein fragment and use thereof” (ADEL INC., priority 2016, dated 2021)
“Also recorded” adds a separate entry of the source. Ends that are not written are not given here.

Columns and labels:
Format in all cases: in vivo
Tau-P301L dementia mice [1] = test: Rota-rod test; conditions: 5th day
Protocol: JNPL3 mice expressing Tau-P301L mutant gene were purchased from Taconic, and back-crossed with C57bl/6 mice for five generations in the experimental animal room of the Asan Institute for Life Sciences. Then, the mice were raised under a specific pathogen free (SPE) condition. For active immunization, the mice were administered, for six months starting from three months after birth at intervals of two weeks, two weeks, four weeks, four weeks, five weeks, four weeks, and one week in this order, the four modified tau protein fragments prepared in Preparation Example 1 together with keyhole limpet hemocyanin (KLH) as a carrier and an aluminum adjuvant. At this time, administration was carried out through intraperitoneal injection (IP injection). The dementia mice which were actively immunized by administration of the K280-ac fragment were designated as Tau-P301L-K280-ac. […]
Specifically, the test was intended to measure how long the mice are able to stay on a rotating rotor. The mice were trained for 4 days and a motor ability thereof was measured on the 5th day. The training was repeated three times a day, during which the time to stay on the rotor and the final rpm were measured while increasing the rpm of the rotor. On the 5th day, the experiment was conducted under the same condition except that a result was measured only once without repeating (FIGS. 14 and 15).

Tau-P301L dementia mice [2] = test: Western blotting of brain tissues for synapse-related proteins; conditions: brain tissue
Protocol: (§1) JNPL3 mice expressing Tau-P301L mutant gene were purchased from Taconic, and back-crossed with C57bl/6 mice for five generations in the experimental animal room of the Asan Institute for Life Sciences. Then, the mice were raised under a specific pathogen free (SPE) condition. For active immunization, the mice were administered, for six months starting from three months after birth at intervals of two weeks, two weeks, four weeks, four weeks, five weeks, four weeks, and one week in this order, the four modified tau protein fragments prepared in Preparation Example 1 together with keyhole limpet hemocyanin (KLH) as a carrier and an aluminum adjuvant. At this time, administration was carried out through intraperitoneal injection (IP injection). The dementia mice which were actively immunized by administration of the K280-ac fragment were designated as Tau-P301L-K280-ac.
(§2) In order to identify a synapse-improving effect following administration of the K280-ac fragment, brain tissues of the Tau-P301L-K280-ac dementia mice, the P301L-K280-ac dementia mice, and the normal mice produced in Preparation Example 2 were extracted, and western blotting was performed.

Tau-P301L dementia mice [3] = test: Memory tests and motor ability tests after active immunization (overall comparison); conditions: comparison of the four modified tau protein fragments
Description: Tau-P301L dementia mice were actively immunized by administration of the four modified tau protein fragments prepared in Preparation Example 1. Then, the Tau-P301L dementia mice were subjected to memory tests such as fear conditioning test and Morris water maze test, motor ability tests such as grip strength test and vertical test, and the like, so that improved effects obtained by the respective modified tau protein fragments were compared.
as §1

Tau-P301L dementia mice [4] = test: MR spectroscopy (MRS) of the hippocampus; conditions: hippocampus ROI; dementia mice about 50% decrease versus normal mice
Protocol: as §1
In order to identify a metabolic imaging index-improving effect following administration of the K280-ac fragment, MR spectroscopy (MRS) was performed on the Tau-P301L-K280-ac dementia mice, the P301L-K280-ac dementia mice, and the normal mice produced in Preparation Example 2. The hippocampus was designated as a region of interest (ROI) (FIG. 36).

Tau-P301L dementia mice [5] = test: Forced swimming test; conditions: second day, 5 minutes
Protocol: as §1
A forced swimming test was conducted to identify a depression-ameliorating effect in the Tau-P301L dementia mice produced in Preparation Example 2. The experiment was conducted for a total of 2 days. […] An index to swim in water (Swimming/S), an index to climb up along the beaker wall (Climbing/C), and an index to float in water without any movement (Immobility/I) were respectively analyzed.

Tau-P301L dementia mice [6] = test: Western blotting of brain tissues for tau proteins (tauopathy-alleviating effect); conditions: brain tissue
Protocol: as §1
as §2, with “tauopathy-alleviating” for “synapse-improving”, “and immunohistochemical staining were” for “was”

Tau-P301L dementia mice [7] = test: Fear conditioning experiment; conditions: actively immunized Tau-P301L dementia mice; normal mice about 150, Tau-P301L 100 or shorter
Protocol: as §1
A fear conditioning experiment was performed on the mice raised in Preparation Example 2. […]
On the day before the fear conditioning experiment, the mice were allowed to become accustomed to a training situation by being placed in the training situation for 10 minutes. […] All tests were recorded on Limelight (Actimetrics) and a computer.
On the next day, the mice were placed again in the experimental cage for 10 minutes and a baseline freezing time was measured while the beep sound was heard. […]

[8] = Antibody production after primary and secondary boosting (vaccine comparison); conditions: compared with N-terminal fragment of tau protein
Protocol: In addition, in order to identify whether the K280-ac fragment is effective as a vaccine, the N-terminal fragment and the K280-ac fragment of the tau protein having the amino acid sequence represented by SEQ ID NO: 31 were administered, and primary boosting and secondary boosting were performed. Then, these fragments were compared in terms of antibody production.

Tau-P301L dementia mice [9] = test: qPCR of brain tissues for inflammation-related genes; conditions: brain tissue, compared with non-immunized dementia mice
Protocol: as §1
as §2, with “an inflammation-improving” for “a synapse-improving”, “qPCR” for “western blotting”, “performed for inflammation-related genes.” for “performed.”

Tau-P301L dementia mice [10] = test: Western blotting of cerebral cortex fractions (tau aggregation-mitigating effect); conditions: cerebral cortex fractions (soluble or insoluble)
Protocol: as §1
In order to identify a tau aggregation-mitigating effect following administration of the K280-ac fragment, western blotting was performed with the cerebral cortices of the Tau-P301L-K280-ac dementia mice, the P301L-K280-ac dementia mice, and the normal mice produced in Preparation Example 2.

Substance: Val-Gln-Ile-Ile-Asn-Lys-Lys-Leu-Asp-Leu-Ser-Asn (VQIINK(Ac)KLDLSN) [K280-ac]
- rota-rod rpm (Tau-P301L dementia mice [1]): increased to levels which correspond to those for the normal mice
- rota-rod time (Tau-P301L dementia mice [1]): increased to levels which correspond to those for the normal mice
- expression level of synapse-related proteins such as PSD95, NMDA receptor, synaptophysin, and synapsin-1 (Tau-P301L dementia mice [2]): restored to that in the normal mice
- improved effect in memory and motor ability tests (Tau-P301L dementia mice [3]): improved effect at a level similar to that in normal mice; also recorded: restores a motor ability and a cognitive function
- N-acetyl-aspartyl-glutamic acid (NAAG) (Tau-P301L dementia mice [4]): restored
- depression-ameliorating effect (immobility, swimming, climbing) (Tau-P301L dementia mice [5]): depression-ameliorating effect is exhibited
- acetylated tau proteins (Tau-P301L dementia mice [6]): decrease
- phosphorylated tau proteins (Tau-P301L dementia mice [6]): decrease
- tau proteins in which lysine, the 280th amino acid, is acetylated (Tau-P301L dementia mice [6]; Tau-P301L 2-fold increase versus normal mice): decreased level of tau proteins which corresponds to that in the normal mice
- freezing time (Tau-P301L dementia mice [7]): about 150 seconds
- antibody production [8]: higher antibody production than the N-terminal fragment
- IFN-γ gene (Tau-P301L dementia mice [9]): decrease
- IL-4 gene (Tau-P301L dementia mice [9]): decrease
- IL-12 gene (Tau-P301L dementia mice [9]): increase
- IL-22 gene (Tau-P301L dementia mice [9]): decrease
- acetylated tau proteins (Tau-P301L dementia mice [10]): decreased
- entire tau protein (Tau-P301L dementia mice [10]): decreased
- phosphorylated tau proteins (Tau-P301L dementia mice [10]): decreased
